The record followed here is ChEMBL document CHEMBL3407489, “Bis-aryl urea derivatives as potent and selective LIM kinase (Limk) inhibitors” (J Med Chem, 2015).

Data set [1] can be described thus: Volume of distribution in Sprague-Dawley rat at 1 mg/kg, iv by LC-MS/MS and HPLC method. The format is ADME, organism-based. Also noted: dose 1 mg/kg, route intravenous. Conditions: in vivo.
A short description of data set [2]: Oral bioavailability in Sprague-Dawley rat at 2 mg/kg by LC-MS/MS and HPLC method. The format is ADME, organism-based. Conditions: in vivo.
Data set [3] addresses T1, LIM domain kinase 1 (Homo sapiens, UniProt P53667).
Description: Inhibition of human Limk1 using cofilin substrate, ATP and [gamma33P]ATP
Data set [4] has as its system Liver microsome. The data set can be described thus: Half life in human liver microsomes. It is filed as ADME. In general terms: Microsomes from liver hold many membrane-bound enzymes, among them those of drug oxidation.
For data set [5], the target named is LIM domain kinase 1 (Rattus norvegicus, UniProt P53669). The data set can be described thus: Inhibition of Limk1 in rat A7r5 cells assessed as reduction in cofilin phosphorylation by Western blot method. The format is cell-based. A general note: A western blot detects proteins with antibodies after separation by electrophoresis.
Chain of LIM domain kinase 1 (Rattus norvegicus, UniProt P53669) (P53669 whole entry, the tested form may be a part): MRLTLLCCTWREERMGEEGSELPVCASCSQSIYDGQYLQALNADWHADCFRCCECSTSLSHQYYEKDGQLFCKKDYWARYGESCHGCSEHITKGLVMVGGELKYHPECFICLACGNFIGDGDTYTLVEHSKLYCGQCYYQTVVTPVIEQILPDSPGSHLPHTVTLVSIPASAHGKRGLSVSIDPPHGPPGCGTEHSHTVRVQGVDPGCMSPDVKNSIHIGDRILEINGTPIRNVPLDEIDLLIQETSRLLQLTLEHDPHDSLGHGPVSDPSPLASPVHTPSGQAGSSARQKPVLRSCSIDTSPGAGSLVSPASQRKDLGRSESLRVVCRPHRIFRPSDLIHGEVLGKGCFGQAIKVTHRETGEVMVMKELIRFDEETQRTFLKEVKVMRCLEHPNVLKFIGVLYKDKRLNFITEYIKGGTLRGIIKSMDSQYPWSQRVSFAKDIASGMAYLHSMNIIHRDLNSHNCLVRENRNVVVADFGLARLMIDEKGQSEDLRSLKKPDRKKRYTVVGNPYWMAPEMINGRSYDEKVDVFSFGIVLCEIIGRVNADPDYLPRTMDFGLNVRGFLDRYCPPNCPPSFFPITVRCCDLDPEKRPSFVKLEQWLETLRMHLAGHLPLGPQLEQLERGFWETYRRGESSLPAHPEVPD
The test system of data set [6] is Liver microsome. The data set can be described thus: Half life in rat liver microsomes. The format is ADME.
For data set [7], the target named is Rho-associated protein kinase 2 (Homo sapiens, UniProt O75116).
Chain of Rho-associated protein kinase 2 (O75116 whole entry): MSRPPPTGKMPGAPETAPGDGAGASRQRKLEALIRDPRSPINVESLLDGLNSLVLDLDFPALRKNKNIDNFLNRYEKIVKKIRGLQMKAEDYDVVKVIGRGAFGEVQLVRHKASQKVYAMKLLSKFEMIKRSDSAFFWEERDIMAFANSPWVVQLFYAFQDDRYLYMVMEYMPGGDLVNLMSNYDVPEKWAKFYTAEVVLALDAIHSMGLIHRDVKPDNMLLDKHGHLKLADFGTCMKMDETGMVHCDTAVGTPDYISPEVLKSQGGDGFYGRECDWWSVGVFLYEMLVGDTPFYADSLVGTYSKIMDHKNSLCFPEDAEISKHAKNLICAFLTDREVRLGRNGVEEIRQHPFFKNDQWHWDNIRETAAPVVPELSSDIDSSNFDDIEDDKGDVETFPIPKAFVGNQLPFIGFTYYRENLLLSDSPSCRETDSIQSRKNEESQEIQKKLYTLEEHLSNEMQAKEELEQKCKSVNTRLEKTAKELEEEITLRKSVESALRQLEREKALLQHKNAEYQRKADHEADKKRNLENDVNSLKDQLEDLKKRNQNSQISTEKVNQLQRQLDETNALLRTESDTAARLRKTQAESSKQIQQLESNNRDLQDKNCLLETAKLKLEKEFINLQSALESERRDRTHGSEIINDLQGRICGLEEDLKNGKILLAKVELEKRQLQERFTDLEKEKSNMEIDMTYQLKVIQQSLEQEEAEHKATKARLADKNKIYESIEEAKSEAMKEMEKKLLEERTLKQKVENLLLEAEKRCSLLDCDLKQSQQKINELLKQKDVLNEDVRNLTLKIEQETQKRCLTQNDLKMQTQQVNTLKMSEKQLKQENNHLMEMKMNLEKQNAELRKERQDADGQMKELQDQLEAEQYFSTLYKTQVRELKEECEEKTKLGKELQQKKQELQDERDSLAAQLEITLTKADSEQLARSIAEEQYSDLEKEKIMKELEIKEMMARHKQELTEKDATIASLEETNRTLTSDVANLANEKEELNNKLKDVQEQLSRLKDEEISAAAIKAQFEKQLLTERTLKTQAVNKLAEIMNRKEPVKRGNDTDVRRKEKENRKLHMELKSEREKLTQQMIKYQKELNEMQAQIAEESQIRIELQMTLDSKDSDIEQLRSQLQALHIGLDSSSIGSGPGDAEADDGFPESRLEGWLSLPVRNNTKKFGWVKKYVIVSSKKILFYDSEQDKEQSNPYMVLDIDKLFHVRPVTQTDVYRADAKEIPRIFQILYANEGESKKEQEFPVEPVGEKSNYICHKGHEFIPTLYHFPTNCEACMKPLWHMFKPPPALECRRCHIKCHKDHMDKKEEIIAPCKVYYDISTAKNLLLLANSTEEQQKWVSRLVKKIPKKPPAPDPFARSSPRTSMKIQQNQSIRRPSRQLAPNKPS
In data set [8] the test system is PC-3. The experiment in a line: cells. Conditions: Homo sapiens, PC-3, 24 h, read-out: INH.
Description: Inhibition of cell migration of human PC3 cells at 10 uM after 24 hrs wound healing assay
The subject of data set [9] is PC-3. The data set can be described thus: cells. Conditions: Homo sapiens, PC-3, 24 h, read-out: INH. This is another data set of the same source.
Description: Inhibition of cell migration of human PC3 cells at 1 uM after 24 hrs wound healing assay
Data set [10] concerns PC-3. The experiment in a line: cells. The settings on record: Homo sapiens, PC-3, 48 h, read-out: INH.
Description: Inhibition of cell invasion of human PC3 cells at 1 uM after 48 hrs by hematoxylin staining based transwell chamber assay
Data set [11] concerns PC-3. The experiment in a line: cells. The settings on record: Homo sapiens, PC-3, 24 h, read-out: INH. This is another data set of the same source.
Description: Inhibition of cell migration of human PC3 cells at 0.1 uM after 24 hrs wound healing assay
In another data set the target is T2, CYP1A2 (Homo sapiens, UniProt P05177).
T2 sequence (P05177 whole entry): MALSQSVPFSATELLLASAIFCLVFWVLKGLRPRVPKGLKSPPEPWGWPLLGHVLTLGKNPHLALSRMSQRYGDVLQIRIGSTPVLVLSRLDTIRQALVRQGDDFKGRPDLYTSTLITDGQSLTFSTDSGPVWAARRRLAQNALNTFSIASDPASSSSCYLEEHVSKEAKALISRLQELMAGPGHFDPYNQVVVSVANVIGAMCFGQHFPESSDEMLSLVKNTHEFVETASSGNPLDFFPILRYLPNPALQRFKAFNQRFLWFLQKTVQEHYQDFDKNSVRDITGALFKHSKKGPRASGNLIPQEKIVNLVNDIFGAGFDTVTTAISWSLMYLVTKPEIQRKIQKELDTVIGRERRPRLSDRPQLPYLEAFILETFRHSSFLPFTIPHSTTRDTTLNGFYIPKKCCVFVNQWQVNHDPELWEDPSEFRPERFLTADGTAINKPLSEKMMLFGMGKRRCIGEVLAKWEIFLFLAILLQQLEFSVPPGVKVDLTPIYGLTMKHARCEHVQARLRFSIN
The experiment in a line: Inhibition of CYP1A2 (unknown origin) assessed as reduction in phenaceten demethylation to acetaminophen at 10 uM. It is filed as ADME.

A further data set has as its target CYP2D6 (Homo sapiens, UniProt P10635). The experiment in a line: Inhibition of CYP2D6 (unknown origin) assessed as reduction in bufuralol hydroxylation to […] at 10 uM. It is filed as ADME. The settings on record: probe bufuralol.
In another data set the target is CYP3A4 (Homo sapiens, UniProt P08684). The experiment in a line: Inhibition of CYP3A4 (unknown origin) assessed as reduction in midazolam hydroxylation to 1'-Hydroxymidazolam at 10 uM. The format is ADME. Conditions: probe midazolam.
Chain of CYP3A4 (P08684 whole entry): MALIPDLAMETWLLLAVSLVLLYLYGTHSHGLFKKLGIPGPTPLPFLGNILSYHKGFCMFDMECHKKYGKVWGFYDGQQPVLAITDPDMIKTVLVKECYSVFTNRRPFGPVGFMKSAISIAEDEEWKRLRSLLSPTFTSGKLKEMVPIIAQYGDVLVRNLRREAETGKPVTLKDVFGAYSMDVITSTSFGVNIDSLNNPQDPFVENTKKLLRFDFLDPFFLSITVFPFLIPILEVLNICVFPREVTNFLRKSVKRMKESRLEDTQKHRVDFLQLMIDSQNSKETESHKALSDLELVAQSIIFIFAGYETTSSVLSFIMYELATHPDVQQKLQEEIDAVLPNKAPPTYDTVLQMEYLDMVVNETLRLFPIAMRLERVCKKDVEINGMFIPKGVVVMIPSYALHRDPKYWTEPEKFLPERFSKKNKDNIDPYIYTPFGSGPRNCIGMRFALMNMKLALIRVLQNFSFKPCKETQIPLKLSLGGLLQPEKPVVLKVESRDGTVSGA
The target of the next data set is CYP2C9 (Homo sapiens, UniProt P11712). The experiment in a line: Inhibition of CYP2C9 (unknown origin) assessed as reduction in tolbutamide hydroxylation to hydrocytolbutamide at 10 uM. It is filed as ADME.
Chain of CYP2C9 (P11712 whole entry, the tested form may be a part): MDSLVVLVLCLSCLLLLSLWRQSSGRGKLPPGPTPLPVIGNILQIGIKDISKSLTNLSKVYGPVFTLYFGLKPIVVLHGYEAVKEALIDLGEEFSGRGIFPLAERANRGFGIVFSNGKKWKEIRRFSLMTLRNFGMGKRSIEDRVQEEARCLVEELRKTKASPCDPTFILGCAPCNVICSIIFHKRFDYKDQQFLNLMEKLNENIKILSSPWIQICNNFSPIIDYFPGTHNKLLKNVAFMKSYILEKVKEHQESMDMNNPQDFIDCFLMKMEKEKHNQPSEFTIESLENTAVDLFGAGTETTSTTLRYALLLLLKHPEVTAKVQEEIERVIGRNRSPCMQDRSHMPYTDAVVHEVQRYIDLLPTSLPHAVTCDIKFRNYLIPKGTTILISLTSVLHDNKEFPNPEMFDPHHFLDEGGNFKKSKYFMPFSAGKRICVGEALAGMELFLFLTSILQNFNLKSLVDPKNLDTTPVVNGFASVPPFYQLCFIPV
Data set [12] addresses T1, LIM domain kinase 1. The experiment in a line: Inhibition of Limk1 (unknown origin).

Chain of CYP2D6 (P10635 whole entry): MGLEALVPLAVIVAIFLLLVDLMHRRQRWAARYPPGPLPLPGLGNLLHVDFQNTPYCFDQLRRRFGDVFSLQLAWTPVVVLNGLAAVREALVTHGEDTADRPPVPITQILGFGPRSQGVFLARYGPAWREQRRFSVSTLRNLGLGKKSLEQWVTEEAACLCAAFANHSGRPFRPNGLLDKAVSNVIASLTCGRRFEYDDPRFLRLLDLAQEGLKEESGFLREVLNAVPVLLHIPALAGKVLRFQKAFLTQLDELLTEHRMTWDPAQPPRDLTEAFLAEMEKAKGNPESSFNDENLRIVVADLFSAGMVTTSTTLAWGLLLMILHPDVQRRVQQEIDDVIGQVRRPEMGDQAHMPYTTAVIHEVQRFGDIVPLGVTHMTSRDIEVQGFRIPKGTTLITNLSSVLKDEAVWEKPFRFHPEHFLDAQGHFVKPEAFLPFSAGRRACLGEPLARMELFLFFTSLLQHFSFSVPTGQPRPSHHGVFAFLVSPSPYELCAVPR
T1 sequence (P53667 whole entry, the tested form may be a part): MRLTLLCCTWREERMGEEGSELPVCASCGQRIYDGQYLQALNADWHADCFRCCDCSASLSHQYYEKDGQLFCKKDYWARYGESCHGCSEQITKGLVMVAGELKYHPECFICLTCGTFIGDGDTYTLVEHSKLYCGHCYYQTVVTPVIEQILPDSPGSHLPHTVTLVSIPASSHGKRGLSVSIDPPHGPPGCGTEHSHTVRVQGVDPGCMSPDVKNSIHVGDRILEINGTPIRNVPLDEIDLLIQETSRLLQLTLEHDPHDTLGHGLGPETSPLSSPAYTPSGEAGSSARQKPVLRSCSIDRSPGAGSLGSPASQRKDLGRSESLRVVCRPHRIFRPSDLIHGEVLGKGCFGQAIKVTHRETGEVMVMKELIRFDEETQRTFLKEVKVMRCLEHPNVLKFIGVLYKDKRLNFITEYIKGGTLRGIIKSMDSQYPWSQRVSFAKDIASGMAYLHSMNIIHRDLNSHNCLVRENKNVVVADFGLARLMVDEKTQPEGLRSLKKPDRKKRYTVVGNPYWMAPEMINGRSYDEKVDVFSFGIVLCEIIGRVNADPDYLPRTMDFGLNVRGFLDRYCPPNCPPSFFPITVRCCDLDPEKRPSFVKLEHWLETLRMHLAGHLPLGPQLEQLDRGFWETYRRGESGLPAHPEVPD

For orientation: Vd means the apparent volume that relates the amount in the body to the concentration in plasma or blood. Low readings indicate little distribution into tissue, high ones wide distribution into tissue. One may read the bioavailability as the share of a dose that reaches the circulation, judged against a reference dose that is usually intravenous. A higher bioavailability goes with good availability. `Cc1c[nH]c2ncnc(-c3ccc(NC(=O)Nc4cccc(C(=O)NC(C)C)c4)cc3)c12` showed a Vd in [1] of 0.3 L/kg. Moreover, in [2], the bioavailability turned out to be 0%.
One may read the IC50 as the midpoint of a concentration-inhibition curve. Regarding `CC(C)NC(=O)c1cccc(NC(=O)Nc2ccc(-c3ccnc4[nH]ccc34)cc2)c1`, at LIM domain kinase 1 [3], the IC50 is over 10000 nM.
`Cc1c[nH]c2ncnc(-c3ccc(NC(=O)Nc4cccc(C(=O)NC(C)C)c4)c(F)c3)c12`: the t1/2 in the data set with Liver microsome [4] stood at 27 min; in the data set on Liver microsome [6], 55 min. In data set [1], this molecule came in with a Vd of 0.7 L/kg. Besides, on LIM domain kinase 1 [5], the IC50 amounted to 4000 nM. Also, the bioavailability in [2] is 0%.
With `CC(C)NC(=O)c1cccc(NC(=O)Nc2ccc(-c3ncnc4[nH]cnc34)cc2)c1`, the figures for the IC50 (in data set [7]; on LIM domain kinase 1 [3]) were 5570 nM and 1530 nM, respectively.
Consider `Cc1[nH]c2ncnc(-c3ccc(NC(=O)Nc4cccc(C(=O)NC(C)C)c4)cc3)c2c1C`, for which the values for the t1/2 with Liver microsome [4] and in the data set on Liver microsome [6] were 47 min and over 120 min, respectively.
In data set [1], `Cc1c[nH]c2ncnc(-c3ccc(NC(=O)Nc4ccccc4)cc3)c12` showed a Vd of 0.5 L/kg. The bioavailability in data set [2] turned out to be 16%.
For the molecule `Cc1c[nH]c2ncnc(-c3ccc(NC(=O)N(CCO)c4ccccc4)cc3)c12`, the inhibition at 10 µM was 77.5% with PC-3 [8], -16% on CYP1A2 and 5% on CYP2D6. Moreover, the values for the inhibition at 1 µM in the data set on PC-3 [9] and in the data set on PC-3 [10] were 74% and 76%, respectively. Further, the figures for the t1/2 with Liver microsome [4] and in the data set with Liver microsome [6] were 87 min and 30 min, respectively. In the data set on PC-3 [11], the inhibition at 0.1 µM was 16.5%. This molecule also displayed a Vd in data set [1] of 0.4 L/kg. Further, the bioavailability in data set [2] is 36%.
In the case of `Cc1c[nH]c2ncnc(-c3ccc(NC(=O)N(CCO)c4ccc(F)cc4)cc3)c12`, the t1/2 came to 44 min in the data set with Liver microsome [4] and 52 min in the data set with Liver microsome [6]. Besides, the results for the inhibition at 10 µM on CYP1A2 and on CYP2D6 were -4% and 3%, respectively.
With `Cc1c[nH]c2ncnc(-c3ccc(NC(=O)N(CCO)c4ccccc4Cl)cc3)c12`, the values for the inhibition at 10 µM in the data set on PC-3 [8], on CYP1A2 and at CYP2D6 were 81%, -4% and 1%, respectively. Besides, the results for the inhibition at 1 µM with PC-3 [9] and in the data set with PC-3 [10] were 76.1% and 83%, respectively. Besides, the inhibition at 0.1 µM with PC-3 [11] came to 13%. Also, in data set [1], the distribution volume (Vd) was 0.7 L/kg. Further, the IC50 on LIM domain kinase 1 [5] was determined as 420 nM. Further, the t1/2 with Liver microsome [6] is listed as 38 min. The bioavailability in data set [2] is 21%.
In the case of `Cc1c[nH]c2ncnc(-c3ccc(NC(=O)N(CCO)c4cccc(Cl)c4)cc3)c12`, the t1/2 in the data set on Liver microsome [4] worked out at 22 min; with Liver microsome [6], 20 min. In addition, the IC50 at LIM domain kinase 1 [5] came out at 372 nM. The figures for the inhibition at 10 µM on CYP1A2 and at CYP2D6 were -19% and 2%, respectively.
With `Cc1c[nH]c2ncnc(-c3ccc(NC(=O)N(CCO)c4ccc(Cl)cc4)cc3)c12`, the t1/2 is reported as over 120 min in the data set on Liver microsome [4] and 73 min in the data set on Liver microsome [6]. The Vd in [1] was determined as 0.5 L/kg. For the same molecule, at LIM domain kinase 1 [5], the concentration for half-maximal inhibition (IC50) worked out at 118 nM. Moreover, the results for the inhibition at 10 µM on CYP1A2 and on CYP2D6 were -12% and 4%, respectively. The same molecule displayed a bioavailability in data set [2] of 20%.
Regarding `Cc1ccc(N(CCO)C(=O)Nc2ccc(-c3ncnc4[nH]cc(C)c34)cc2)cc1`, the results for the t1/2 in the data set on Liver microsome [4] and in the data set on Liver microsome [6] were 56 min and 39 min, respectively. Besides, in data set [1], the Vd was 0.3 L/kg. In addition, the inhibition at 10 µM at CYP1A2 was -5%; on CYP3A4, 5%; on CYP2D6 it was -4%. The same molecule registered a bioavailability in data set [2] of 24%.
`COc1ccccc1N(CCO)C(=O)Nc1ccc(-c2ncnc3[nH]cc(C)c23)cc1` came in with an IC50 in [7] of over 10000 nM.
Regarding `COc1cccc(N(CCO)C(=O)Nc2ccc(-c3ncnc4[nH]cc(C)c34)cc2)c1`, the t1/2 in the data set on Liver microsome [4] worked out at 38 min; in the data set with Liver microsome [6] it was 21 min. In addition, the inhibition at 10 µM at CYP1A2 and on CYP2D6 was 3% each time.
Regarding `COc1ccc(N(CCO)C(=O)Nc2ccc(-c3ncnc4[nH]cc(C)c34)cc2)cc1`, the inhibition at 10 µM on CYP2C9 is 8%; at CYP1A2, -8%; at CYP3A4, 2%; on CYP2D6, -4%. Further, the t1/2 in the data set on Liver microsome [4] was determined as 56 min; in the data set on Liver microsome [6], 40 min. The same molecule came in with a Vd in data set [1] of 0.3 L/kg. Further, in data set [2], the bioavailability was 24%.
For the molecule `COc1ccc(N(CCN)C(=O)Nc2ccc(-c3ncnc4[nH]cc(C)c34)cc2)cc1`, the Vd in data set [1] is 6 L/kg. Moreover, in [2], the bioavailability is 0%.
In [1], `Cc1c[nH]c2ncnc(-c3ccc(NC(=O)N(CCN)c4ccc(Cl)cc4)cc3)c12` came in with a Vd of 4 L/kg. The bioavailability in data set [2] amounted to 0%.
On the same counts, the results for `Cc1c[nH]c2ncnc(-c3ccc(NC(=O)N(CCN(C)C)c4ccc(Cl)cc4)cc3)c12` are 17.1 L/kg and 0%.
Turning to `Cc1[nH]c2ncnc(-c3ccc(NC(=O)N(CCO)c4ccc(Cl)cc4)c(F)c3)c2c1C`, the t1/2 with Liver microsome [4] was found to be 99 min; in the data set on Liver microsome [6], 44 min. Besides, the Vd in data set [1] is 0.5 L/kg. The inhibition at 10 µM at CYP1A2 is 40%; on CYP2D6, 8%. For the same molecule, in data set [2], the bioavailability is 29%.
As for `Cc1[nH]c2ncnc(-c3ccc(NC(=O)N(CCN)c4ccc(Cl)cc4)c(F)c3)c2c1C`, the t1/2 in the data set with Liver microsome [4] and in the data set with Liver microsome [6] was over 120 min in each case. For the same molecule, on CYP3A4, the inhibition at 10 µM is -11%.
As for `Cc1[nH]c2ncnc(-c3ccc(NC(=O)N(CCN(C)C)c4ccc(Cl)cc4)c(F)c3)c2c1C`, the inhibition at 10 µM was -23% on CYP2C9, -9% on CYP3A4 and 20% at CYP2D6. Further, the values for the t1/2 in the data set on Liver microsome [4] and in the data set on Liver microsome [6] were 19 min and 23 min, respectively. The molecule further displayed a Vd in data set [1] of 1.5 L/kg. For the same molecule, the IC50 at LIM domain kinase 1 [5] is 320 nM.
For `COCCN(C(=O)Nc1ccc(-c2ncnc3[nH]c(C)c(C)c23)cc1F)c1ccc(Cl)cc1`, the inhibition at 10 µM on CYP2C9 came out at 50%. In [1], this molecule showed a Vd of 1.2 L/kg. Besides, the IC50 at LIM domain kinase 1 [5] is 250 nM. The same molecule displayed a t1/2 in the data set on Liver microsome [6] of 13 min.
For the molecule `COc1ccc(NC(=O)N(CCN2CCCC2)c2ccc(-c3ncnc4[nH]cc(C)c34)cc2)cc1`, at LIM domain kinase 1 [3], half-maximal inhibition (IC50) required 9240 nM.
The same measure, in the same setting: then `COc1ccc(NC(=O)N(CCN2CCCCC2)c2ccc(-c3ncnc4[nH]cc(C)c34)cc2)cc1`, with over 10000 nM.
Molecule `COc1c(C=O)c(O)cc2c1C(=O)c1ccccc1C2=O` [DAMNACANTHAL] had an IC50 at LIM domain kinase 1 [12] of 800 nM.
